Assay results published in publication PMC11546719, “Immune Modulatory Profile of the Pateamines PatA and Des-Methyl Des-Amino PatA” (International Journal of Molecular Sciences, 2024).
Like-named read-outs stand apart in the source and are kept apart here.

Columns and labels:
Human primary T cells = system: Human primary T cells; design: method as in PMID 36982945; settings: summary table ref 11; cited from earlier work
M1 MdMs [1] = system: M1 MdMs; design: method as in PMID 36982945; settings: summary table ref 11; cited from earlier work
M2 MdMs = system: M2 MdMs; design: method as in PMID 36982945; settings: summary table ref 11; cited from earlier work
Human primary B cells [2] = system: Human primary B cells; design: method as in PMID 36982945; settings: summary table ref 11; cited from earlier work
T cells = assay: Energy metabolism (Seahorse OCR/ECAR) in T cells; format: cell-based, human; settings: 5 days, PatA, DMDA 0.25-0.5 nM, silvestrol 5 nM
Experimental: (§1) The determination of the energy metabolism was performed as described previously. Briefly, for the analysis of the extracellular acidification rate (ECAR) and the oxygen consumption rate (OCR) for human B cells, Tcells, M1 MdMs and M2 MdMs, the Seahorse XFe96 FluxPak (Agilent, Waldbronn, Germany) was used as recommended by the manufacturer. MdMs were polarized to M1 or M2 MdMs in the presence of PatA (0.5, 2.5, 5 nM), DMDA (0.5, 2.5, 5 nM) or vehicle (DMSO) for 48 h or 24 h, respectively. T cells were activated in the presence of PatA (0.25, 0.5 nM), DMDA (0.25, 0.5 nM), silvestrol or DMSO. B cells were activated in the presence of PatA (0.25, 0.5 nM), DMDA (0.25, 0.5 nM), silvestrol (5 nM) or rapamycin (10 ng/mL positive control). Cells were washed with Seahorse XF RPMI medium pH 7.4 (Agilent, Waldbronn, Germany) and OCR and ECAR were measured as octuplicates for a period of 160 min using the Seahorse XFe96 Analyzer (Agilent, Waldbronn, Germany) and analyzed by Wave Software 2.6.3.8 (Agilent, Waldbronn, Germany). The relative values were calculated by relating the OCR or ECAR values obtained after 50 min to the values of the vehicle control (not stimulated).

M1 MdMs [3] = system: M1 MdMs; design: method as in PMID 36982945; settings: M1 MdMs ref 11; cited from earlier work
TK6 cells = assay: Micronuclei assay; format: cell-based, human; settings: 4 h incubation then 44 h
Experimental: The In-Vitro Micronuclei Plus assay (Becton Dickinson, Heidelberg, Germany) was performed as described by the supplier. Briefly, 2 × 10^4 TK6 cells were incubated with increasing concentrations of PatA, DMDA and silvestrol for 4 h. The cells were washed with PBS and incubated in fresh medium (without test substance) for 44 h. The cells were centrifuged (300× g) for 5 min, the […] and placed on ice for 20 min. Then, 50 µL of Complete Nucleic Acid Dye A Solution was added. The plate was placed on ice and exposed to visible light for 30 min. The Nucleic Acid Dye A solution was removed and the cells were washed with 0.15 mL of cold 1x Buffer Solution. An amount of 100 µL Complete Lysis Solution 1 was added, followed by gently mixing of the plate for 5 s and incubation of 1 h in the dark at 37 °C. Then, 100 µL Complete Lysis Solution 2 was added and incubated for 30 min in the dark at room temperature. The cells were analyzed via flow cytometry with the MACSQuant 10 (Miltenyi GmbH, Bergisch Gladbach, Germany).

B cells = assay: Energy metabolism (Seahorse OCR/ECAR) in B cells; format: cell-based, human; settings: 5 days, PatA, DMDA 0.25-0.5 nM, silvestrol 5 nM, rapamycin 10 ng/mL
Experimental: as §1

Caco-2 cell barrier = assay: Transport assay, Caco-2 cell barrier; format: in vitro ADME
Experimental: (§2) The transport assay was achieved as described previously. Briefly, 1 × 10^5 CaCo-2 or 5 × 10^4 Calu-3 cells in 300 µL medium were seeded on 24-well ThinCerts (pre-coated with FCS for 60 min) and in the lower compartment, 1 mL culture medium per well was added. The Caco-2 cell barrier was generated over 20 days and the Calu-3 barrier was generated over 14 days. DMDA (0 nM, 5 nM, 50 nM, 100 nM), PatA (0 nM, 5 nM, 50 nM, 100 nM), 200 µM famotidine, 200 µM lucifer yellow or 200 µM carbamazepine diluted in medium was added to the apical compartment and incubated for 4 h or 24 h. The medium from the basolateral and apical compartment was collected and stored at −20 °C and analyzed using LC-MS/MS. To obtain the transport rate, the drug amount in the basolateral compartment at 4 h or 24 h was related to the drug amount in the apical compartment (0 h).
(§3) The detailed method for the analysis of DMDA, PatA, carbamazepine and famotidine using LC-MS/MS is described in the Supplementary Materials.

Calu-3 cell barrier = assay: Transport assay, Calu-3 cell barrier; format: in vitro ADME
Experimental: as §2, §3

Human primary B cells [4] = assay: B cell activation with IL-21, sCD40L, CpG and anti-IgM; format: cell-based; settings: activated B cells, 5 days
Experimental: B cells were activated as described by Khoenkhoen et al.. […].
Surface marker analysis was performed as described previously. Briefly, 1.5–2 × 10^5 cells of each sample were blocked with human FcR Blocking Reagent (15 min, 4 °C). […]. Afterwards, samples were stained with a mixture of different surface marker antibodies (15 min, 4 °C) and measured with MACSQuant® Analyzer 10 flow cytometer. For M1-/M2-MdMs anti-CD86, anti-CD14, anti-HLA-DR, anti-CD206, anti-CD80, anti-TREM2 and anti-CD163 were used. For T cells, anti-CD69, anti-CD54, anti-CD49a, anti-CD18, anti-CD134, anti-CD154, anti-CD3 and anti-CD25 were analyzed. For B cells, anti-CD27, anti-CD19 and anti-CD38 were applied. For T cell and B cell proliferation assay, freshly isolated T and B cells were stained with CTV and detected using flow cytometry. Naïve B cells were characterized as CD19^+CD27^lowCD38^med, memory B cells as CD19^+CD27^med CD38^low and plasma cells as CD27^+CD38^+ cells. M1 MdMs and M2 MdMs cell population was gated using FSC/SSC channel. T cells were gated as CD3^+CD25^+ positive cells. The geometric mean of the fluorescent intensity was calculated using FlowJo software v10 (Treestar, Ashland, […], USA). Fold induction of surface marker expression was calculated using the DMSO-treated cells as the control.
For determination of cytokine concentrations in the supernatant of humane immune cells, cytometric bead array (BD Biosciences, Heidelberg, Germany) for IL-10, IL-17, IL-8, IL-6, IFN-γ and CCL2 was used. For the detection of CCL18, CCL17, IgG, IgA and PGE2, an ELISA was performed. The cytometric bead arrays and the ELISAs were performed according to the protocol of the supplier.

[5] = 4 and 24 h, PatA, DMDA 5, 50, 100 nM, controls 200 µM

What does the source list for `CONC(=O)[C@H]1[C@@H](O)[C@@]2(O)c3c(OC)cc(OC)cc3O[C@@]2(c2ccc(OC)cc2)[C@@H]1c1ccccc1` [CR31-B (-)]?
Effect on the release of inflammatory markers, T Cells (Human primary T cells): IL-10↓, IL-17↓, IFN-γ↓; Effect on the release of inflammatory markers, M1 MdM (M1 MdMs [1]): IL-6↓, IL-8↓, CCL2↓, CCL18↓; Effect on the release of inflammatory markers, M2 MdM (M2 MdMs): TNF-α↑, CCL2↓, CCL17↓, CCL18↓,; Effect on the release of inflammatory markers, B Cells (Human primary B cells [2]): IgA↓, IgG↓

For `COC(=O)[C@H]1[C@@H](O)[C@@]2(O)c3c(OC)cc(O[C@@H]4O[C@@H]([C@H](O)CO)CO[C@H]4OC)cc3O[C@@]2(c2ccc(OC)cc2)[C@@H]1c1ccccc1` [Silvestrol, silvestrol], which “Energy metabolism: glycolysis (ECAR) and oxidative phosphorylation (OCR)” value (T cells) is on record?
The value was “did not alter the energy metabolism”.

And the “Energy metabolism: glycolysis and oxidative phosphorylation” value (M1 MdMs [3])?
Its value is “reduced glycolysis and oxidative phosphorylation”.

And the “Effect on the release of inflammatory markers, T Cells” value (Human primary T cells)?
Its value is “IL-10↑, IFN-γ↑”.

And the “Effect on the release of inflammatory markers, M1 MdM” value (M1 MdMs [1])?
Its value is “IL-6↓, IL-8↓, CCL2↓, TNF-α↑”.

And the “Effect on the release of inflammatory markers, M2 MdM” value (M2 MdMs)?
Its value is “IL-8↓, CCL2↓,”.

What about the “Genotoxic potential: micronuclei (clastogenic) and hypodiploid cells (aneugenic)” value (TK6 cells) of the same compound?
The value was “showed no genotoxic effects”.

What about the “Effect on the release of inflammatory markers, B Cells” value (Human primary B cells [2]) of the same compound?
The value was “IgA↓, IgG↓”.

And the “Energy metabolism: glycolysis (ECAR) and oxidative phosphorylation (OCR)” value (B cells)?
The value was “increased glycolysis and oxidative phosphorylation”.

For `COc1cc2c(c(OC)n1)[C@]1(O)[C@H](O)[C@H](CN(C)C)[C@@H](c3ccccc3)[C@]1(c1ccc(C#N)cc1)O2` [Zotatifin, zotatifin], which “Effect on the release of inflammatory markers, T Cells” value (Human primary T cells) is on record?
Its value is “IL-10↓, IL-17↓, IFN-γ↓”.

What about the “Effect on the release of inflammatory markers, M1 MdM” value (M1 MdMs [1]) of the same compound?
Its value is “No effect”.

What about the “Effect on the release of inflammatory markers, M2 MdM” value (M2 MdMs) of the same compound?
Its value is “IL-10↓, CCL18↓”.

What about the “Effect on the release of inflammatory markers, B Cells” value (Human primary B cells [2]) of the same compound?
The value was “IgA↓, IgG↓”.

For `NC(=O)N1c2ccccc2C=Cc2ccccc21` [carbamazepine, reference compound], which “Permeability / transport rate across Caco-2 cell barrier (in words)” value (Caco-2 cell barrier; [5]) is on record?
The value was “high”.

And the “Permeability / transport rate across Calu-3 cell barrier (in words)” value (Calu-3 cell barrier; [5])?
The value was “high”.

For `NC(N)=Nc1nc(CSCCC(N)=NS(N)(=O)=O)cs1` [famotidine, reference compound], which “Permeability / transport rate across Caco-2 cell barrier (in words)” value (Caco-2 cell barrier; [5]) is on record?
The value was “low permeability”.

And the “Permeability / transport rate across Calu-3 cell barrier (in words)” value (Calu-3 cell barrier; [5])?
Its value is “low permeability”.

With `COS(C)(=O)=O` [methylmethansulfonat (MMS), methylmethansulfonat, reference compound] as the compound, how does the “Genotoxic potential: micronuclei (clastogenic) and hypodiploid cells (aneugenic)” value (TK6 cells) read?
Its value is “significant increase in micronuclei and hypodiploid cells”.

What does the source list for `CO[C@H]1C[C@@H]2CC[C@@H](C)[C@@](O)(O2)C(=O)C(=O)N2CCCC[C@H]2C(=O)O[C@H]([C@H](C)C[C@@H]2CC[C@@H](O)[C@H](OC)C2)CC(=O)[C@H](C)/C=C(\C)[C@@H](O)[C@@H](OC)C(=O)[C@H](C)C[C@H](C)/C=C/C=C/C=C/1C` [rapamycin, reference compound]?
B cell activation (formation of plasma cells, proliferation, release of IgGs) (Human primary B cells [4]): prevented B cell activation; Cell viability (zombie staining) (Human primary B cells [4]): did not reduce cell viability

Which results are given for lucifer yellow [reference compound]?
Permeability / transport rate across Caco-2 cell barrier (in words) (Caco-2 cell barrier; Caco-2): low permeability; Permeability / transport rate across Calu-3 cell barrier (in words) (Calu-3 cell barrier): low permeability
